Source: patent publication US20240182445A1 (ONO PHARMACEUTICAL CO., LTD., priority 2019, published 2024)

Biological target: T1, human TREK-1 (Homo sapiens, UniProt O95069)
T1 construct: expressed in transfected cells
T1 sequence (O95069 1-426): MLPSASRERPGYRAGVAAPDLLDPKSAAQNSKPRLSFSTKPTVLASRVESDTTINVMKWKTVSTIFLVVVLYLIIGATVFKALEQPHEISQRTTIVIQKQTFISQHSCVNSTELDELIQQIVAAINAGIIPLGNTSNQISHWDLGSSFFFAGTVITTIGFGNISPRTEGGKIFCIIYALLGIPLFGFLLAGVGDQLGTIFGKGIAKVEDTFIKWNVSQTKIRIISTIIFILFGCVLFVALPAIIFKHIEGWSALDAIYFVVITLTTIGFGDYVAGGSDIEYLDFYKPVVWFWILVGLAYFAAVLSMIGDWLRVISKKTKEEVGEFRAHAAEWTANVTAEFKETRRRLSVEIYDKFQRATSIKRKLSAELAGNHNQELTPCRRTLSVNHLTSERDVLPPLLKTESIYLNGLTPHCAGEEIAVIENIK
Test: TREK-1 Thallium (Tl+) flux assay, Method 1
Type: cell-based
Conditions: TREK-1 Thallium (Tl+) flux assay; no *^12 (Method 2) mark on these rows
Method in brief: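 Readout: Thallos fluorescence ratio, taken 25 s post-thallium relative to the pre-thallium baseline average, then converted to % inhibition. Cells were CHO-K1 stably expressing human TREK-1, dye-loaded and exposed to test compound (vehicle 0.3% DMSO) for 10 min prior to thallium stimulation.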

Row | Structure (SMILES) | IC50
1 | O=C(Nc1ncc(C#Cc2ccc(F)cc2)cc1F)c1c(Cl)cnn1CC1CCOCC1 [Compound 233, 4-chloro-N-(3-fluoro-5-((4-fluorophenyl)ethynyl)pyridin-2-yl)-1-((tetrahydro-2H-pyran-4-yl)methyl)-1H-pyrazole-5-carboxamide] | 360 nM
2 | CC(C)(C#N)Cn1ncc(Cl)c1C(=O)Nc1ncc(C#Cc2ccccc2)cc1F [Compound 234, 4-chloro-1-(2-cyano-2-methylpropyl)-N-(3-fluoro-5-(phenylethynyl)pyridin-2-yl)-1H-pyrazole-5-carboxamide] | 360 nM
3 | O=C(Nc1ncc(C#Cc2ccc(F)cc2)cc1F)c1c(Cl)cnn1[C@@H]1CCN(C(=O)C2COCCO2)C[C@H]1F (stereo partly drawn) [Compound 235, 1-((3R,4R)-1-(1,4-dioxane-2-carbonyl)-3-fluoropiperidin-4-yl)-4-chloro-N-(3-fluoro-5-((4-fluorophenyl)ethynyl)pyridin-2-yl)-1H-pyrazole-5-carboxamide] | 360 nM
4 | Cc1cc(C#Cc2ccccc2)cnc1NC(=O)c1c(Cl)cnn1CC1(F)CCN(C(=O)C(C)C)CC1 [Compound 236, 4-chloro-1-((4-fluoro-1-isobutyrylpiperidin-4-yl)methyl)-N-(3-methyl-5-(phenylethynyl)pyridin-2-yl)-1H-pyrazole-5-carboxamide] | 360 nM
5 | CC(C)(C)OC(=O)N1CCC(n2ncc(Cl)c2C(=O)Nc2ncc(C#Cc3ccccc3)cc2F)C1 (centres unmarked) [Compound 237, tert-butyl 3-(4-chloro-5-((3-fluoro-5-(phenylethynyl)pyridin-2-yl)carbamoyl)-1H-pyrazol-1-yl)pyrrolidine-1-carboxylate] | 370 nM
6 | CC(=O)N1CCC(n2ncc(Cl)c2C(=O)Nc2ncc(C#Cc3ccccc3)cc2C)C1 (centres unmarked) [Compound 238, 1-(1-acetylpyrrolidin-3-yl)-4-chloro-N-(3-methyl-5-(phenylethynyl)pyridin-2-yl)-1H-pyrazole-5-carboxamide] | 370 nM
7 | Cc1cc(C#Cc2ccccc2)cnc1NC(=O)c1c(Cl)cnn1C(C)CNC(=O)OC(C)(C)C (centres unmarked) [Compound 239, tert-butyl (2-(4-chloro-5-((3-methyl-5-(phenylethynyl)pyridin-2-yl)carbamoyl)-1H-pyrazol-1-yl)propyl)carbamate] | 370 nM
8 | CC(C)(C)OC(=O)N1CC[C@@H](Cn2ncc(Cl)c2C(=O)Nc2ncc(C#Cc3ccccc3)cc2F)[C@H](F)C1 [Compound 240, tert-butyl (3S,4S)-4-((4-chloro-5-((3-fluoro-5-(phenylethynyl)pyridin-2-yl)carbamoyl)-1H-pyrazol-1-yl)methyl)-3-fluoropiperidine-1-carboxylate] | 370 nM
9 | Cc1cc(C#Cc2ccccc2)cnc1NC(=O)c1c(Cl)cnn1C[C@@H]1CCN(C(=O)OC(C)(C)C)C[C@H]1F [Compound 241, tert-butyl (3S,4S)-4-((4-chloro-5-((3-methyl-5-(phenylethynyl)pyridin-2-yl)carbamoyl)-1H-pyrazol-1-yl)methyl)-3-fluoropiperidine-1-carboxylate] | 370 nM
10 | Cc1cc(C#Cc2ccccc2)cnc1NC(=O)c1c(Cl)cnn1CC1(C#N)CCCC1 [Compound 242, 4-chloro-1-((1-cyanocyclopentyl)methyl)-N-(3-methyl-5-(phenylethynyl)pyridin-2-yl)-1H-pyrazole-5-carboxamide] | 380 nM
11 | CC(C)(C)OC(=O)N1CC(n2ncc(Cl)c2C(=O)Nc2ncc(C#Cc3ccccc3)cc2F)C1 [Compound 243, tert-butyl 3-(4-chloro-5-((3-fluoro-5-(phenylethynyl)pyridin-2-yl)carbamoyl)-1H-pyrazol-1-yl)azetidine-1-carboxylate] | 380 nM
12 | CC(=O)N1CCC(Cn2ncc(Cl)c2C(=O)Nc2ncc(C#Cc3ccc(F)cc3)cc2C)C(C)C1 (centres unmarked) [Compound 244, 1-((1-acetyl-3-methylpiperidin-4-yl)methyl)-4-chloro-N-(5-((4-fluorophenyl)ethynyl)-3-methylpyridin-2-yl)-1H-pyrazole-5-carboxamide] | 380 nM
13 | N#CC1CC(n2ncc(Cl)c2C(=O)Nc2c(F)cc(C#Cc3ccccc3)cc2F)C1 (centres unmarked) [Compound 245, 4-chloro-1-(3-cyanocyclobutyl)-N-(2,6-difluoro-4-(phenylethynyl)phenyl)-1H-pyrazole-5-carboxamide] | 390 nM
14 | Cc1cc(C#Cc2ccc(F)cc2)cnc1NC(=O)c1c(Cl)cnn1CCN1CCN(C(=O)C2COCCO2)CC1 (centres unmarked) [Compound 246, 1-(2-(4-(1,4-dioxane-2-carbonyl)piperazin-1-yl)ethyl)-4-chloro-N-(5-((4-fluorophenyl)ethynyl)-3-methylpyridin-2-yl)-1H-pyrazole-5-carboxamide] | 390 nM
15 | CC(C)(C)C(=O)N1CCC(n2ncc(Cl)c2C(=O)Nc2ncc(C#Cc3cccs3)cc2F)CC1 [Compound 247, 4-chloro-N-(3-fluoro-5-(thiophen-2-ylethynyl)pyridin-2-yl)-1-(1-pivaloylpiperidin-4-yl)-1H-pyrazole-5-carboxamide] | 390 nM
16 | CC(=O)N1CCCC(Cn2ncc(Cl)c2C(=O)Nc2ncc(C#Cc3ccc(F)cc3)cc2C)C1 (centres unmarked) [Compound 248, 1-((1-acetylpiperidin-3-yl)methyl)-4-chloro-N-(5-((4-fluorophenyl)ethynyl)-3-methylpyridin-2-yl)-1H-pyrazole-5-carboxamide] | 390 nM
17 | Cc1cc(C#Cc2cccc(F)c2)cnc1NC(=O)c1c(Cl)cnn1CC1CCN(C(=O)C(C)C)CC1 [Compound 249, 4-chloro-N-(5-((3-fluorophenyl)ethynyl)-3-methylpyridin-2-yl)-1-((1-isobutyrylpiperidin-4-yl)methyl)-1H-pyrazole-5-carboxamide] | 400 nM
18 | O=C(Nc1ncc(C#Cc2cccs2)cc1F)c1c(Cl)cnn1CCC1CCN(C(=O)C2CC2)CC1 [Compound 250, 4-chloro-1-(2-(1-(cyclopropanecarbonyl)piperidin-4-yl)ethyl)-N-(3-fluoro-5-(thiophen-2-ylethynyl)pyridin-2-yl)-1H-pyrazole-5-carboxamide] | 400 nM
19 | Cc1cc(C#Cc2ccccc2)cnc1NC(=O)c1c(Cl)cnn1CC1(C)CCN(C(=O)C2COCCO2)CC1 (centres unmarked) [Compound 251, 1-((1-(1,4-dioxane-2-carbonyl)-4-methylpiperidin-4-yl)methyl)-4-chloro-N-(3-methyl-5-(phenylethynyl)pyridin-2-yl)-1H-pyrazole-5-carboxamide] | 400 nM
20 | O=C(Nc1c(F)cc(C#Cc2ccccc2)cc1F)c1c(Cl)cnn1C[C@H]1COCCO1 [Compound 252, (S)-1-((1,4-dioxan-2-yl)methyl)-4-chloro-N-(2,6-difluoro-4-(phenylethynyl)phenyl)-1H-pyrazole-5-carboxamide] | 410 nM
21 | N#CCCCn1ncc(Cl)c1C(=O)Nc1c(F)cc(C#Cc2ccccc2)cc1F [Compound 253, 4-chloro-1-(3-cyanopropyl)-N-(2,6-difluoro-4-(phenylethynyl)phenyl)-1H-pyrazole-5-carboxamide] | 410 nM
22 | Cc1cc(C#Cc2ccccc2)cnc1NC(=O)c1c(Cl)cnn1C1CC(C#N)C1 (centres unmarked) [Compound 254, 4-chloro-1-(3-cyanocyclobutyl)-N-(3-methyl-5-(phenylethynyl)pyridin-2-yl)-1H-pyrazole-5-carboxamide] | 420 nM
23 | CC(C)(C)OC(=O)N1CCC(n2ncc(Cl)c2C(=O)Nc2ncc(C#Cc3ccccc3)cc2F)CC1 [Compound 255, tert-butyl 4-(4-chloro-5-((3-fluoro-5-(phenylethynyl)pyridin-2-yl)carbamoyl)-1H-pyrazol-1-yl)piperidine-1-carboxylate] | 420 nM
24 | CC(=O)N1CCC(Cn2ncc(Cl)c2C(=O)Nc2ncc(C#Cc3ccc(F)cc3)cc2C)CC1 [Compound 256, 1-((1-acetylpiperidin-4-yl)methyl)-4-chloro-N-(5-((4-fluorophenyl)ethynyl)-3-methylpyridin-2-yl)-1H-pyrazole-5-carboxamide] | 420 nM
25 | CC(C)(C)OC(=O)N1CCN(CCn2ncc(Cl)c2C(=O)Nc2ncc(C#Cc3ccccc3)cc2F)CC1 [Compound 257, tert-butyl 4-(2-(4-chloro-5-((3-fluoro-5-(phenylethynyl)pyridin-2-yl)carbamoyl)-1H-pyrazol-1-yl)ethyl)piperazine-1-carboxylate] | 420 nM
26 | Cc1cc(C#Cc2ccc(F)cc2)cnc1NC(=O)c1c(Cl)cnn1C1CCN(C(=O)CC(C)C)C1 (centres unmarked) [Compound 258, 4-chloro-N-(5-((4-fluorophenyl)ethynyl)-3-methylpyridin-2-yl)-1-(1-(3-methylbutanoyl)pyrrolidin-3-yl)-1H-pyrazole-5-carboxamide] | 420 nM
27 | CC(=O)N1C[C@H]2C[C@H](n3ncc(Cl)c3C(=O)Nc3ncc(C#Cc4ccccc4)cc3C)C[C@H]2C1 [Compound 260, 1-[(3aR,5s,6aS)-2-acetyloctahydrocyclopenta[c]pyrrol-5-yl]-4-chloro-N-[3-methyl-5-(phenylethynyl)pyridin-2-yl]-1H-pyrazole-5-carboxamide] | 260 nM
28 | CC(=O)N1CCC[C@H](Cn2ncc(Cl)c2C(=O)Nc2ncc(C#Cc3ccccc3)cc2F)C1 [Compound 262, (S)-1-((1-acetylpiperidin-3-yl)methyl)-4-chloro-N-(3-fluoro-5-(phenylethynyl)pyridin-2-yl)-1H-pyrazole-5-carboxamide] | 430 nM
29 | Cc1cc(C#Cc2ccccc2)cnc1NC(=O)c1c(Cl)cnn1C[C@H]1CCCN(C(=O)C(C)C)C1 [Compound 263] | 430 nM
